Measured values reported in US6686371B2, “Non-steroidal, tetracylic compounds for estrogen-related treatments” (Akzo Nobel N.V., priority 2000, dated 2004).

Experiments:
[1] = molecular target: T1, human estrogen receptor β receptor (hERβ) (Homo sapiens, UniProt Q92731); test: competitive binding to cytoplasmic human estrogen receptor β from recombinant CHO cells; settings: % relative to 17β-estradiol, cytosol of recombinant CHO cells; for ERβ Binding (Potency Binding (ERβ)): Table 1; for Binding ERβ: Table 2
T1 construct: expressed in transfected cells; host or cells: Chinese hamster ovary (CHO) cells, stably co-transfected with hERβ, rat oxytocin promoter and luciferase reporter
T1 sequence (Q92731 whole entry): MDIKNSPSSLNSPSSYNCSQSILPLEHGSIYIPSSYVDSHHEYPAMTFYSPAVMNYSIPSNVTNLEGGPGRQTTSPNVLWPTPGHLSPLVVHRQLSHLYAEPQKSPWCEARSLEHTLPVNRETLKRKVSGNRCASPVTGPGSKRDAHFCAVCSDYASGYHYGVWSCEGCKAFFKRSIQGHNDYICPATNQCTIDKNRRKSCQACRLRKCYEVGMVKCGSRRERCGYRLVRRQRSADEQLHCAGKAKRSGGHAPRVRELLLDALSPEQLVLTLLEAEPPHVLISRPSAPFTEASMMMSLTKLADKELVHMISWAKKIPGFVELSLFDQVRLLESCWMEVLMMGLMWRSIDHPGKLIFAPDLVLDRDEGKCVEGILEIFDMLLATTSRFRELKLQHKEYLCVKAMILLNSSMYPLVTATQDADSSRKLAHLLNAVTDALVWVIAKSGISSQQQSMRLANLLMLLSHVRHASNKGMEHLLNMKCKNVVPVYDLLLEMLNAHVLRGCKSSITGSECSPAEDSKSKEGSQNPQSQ
Protocol: (§1) Compounds are tested for their estrogen receptor activity in a binding assay and in a transactivation assay.
(§2) Determination of competitive binding to cytoplasmic human estrogen receptor α or β from recombinant CHO cells is used to estimate the relative affinity (potency ratio) of a test compound for estrogen receptors present in the cytosol of recombinant Chinese hamster ovary (CHO) cells, stably transfected with the human estrogen receptor α (hERα) or β receptor (hERβ), as compared with estradiol (E2).

[2] = molecular target: T1, human estrogen receptor β receptor (hERβ); test: transactivation assay, estrogenic activity, recombinant CHO cells co-transfected with hERβ, rat oxytocin promoter and luciferase reporter; type: cell-based; settings: for ERβ Transactivation (Potency Transactivation (ERβ)): potency % relative to 17β-estradiol, CHO cells, hERβ, luciferase reporter; for β/α ratio Transactivation: ratio of transactivation potency hERβ over hERα
Protocol: as §1
The estrogenic and antiestrogenic activity of compounds is determined in an in vitro bioassay with recombinant Chinese hamster ovary (CHO) cells stably co-transfected with the human estrogen receptor α (hERα) or β receptor (hERβ), the rat oxytocin promoter (RO) and the luciferase reporter gene (LUC). The estrogenic activity (potency ratio) of a test compound to stimulate the transactivation of the enzyme luciferase mediated via the estrogen receptors hERα or hERβ is compared with the standard estrogen estradiol. The antiestrogenic activity (potency ratio) of a test compound to inhibit the transactivation of the enzyme luciferase mediated via the estrogen receptors hERα or hERβ by the estrogen estradiol is compared with the standard ICI 164.384 (=(7α,17β)-N-butyl-3,17-dihydroxy-N-methylestra-1,3,5(10)-triene-7-undecanamide).

[3] = molecular target: T2, human estrogen receptor α (hERα) (Homo sapiens, UniProt P03372); test: competitive binding to cytoplasmic human estrogen receptor α from recombinant CHO cells; settings: % relative to 17β-estradiol; cytosol of recombinant CHO cells; Table 2
T2 construct: expressed in transfected cells; host or cells: cytosol of recombinant Chinese hamster ovary (CHO) cells stably transfected with hERα
T2 sequence (P03372 1-595): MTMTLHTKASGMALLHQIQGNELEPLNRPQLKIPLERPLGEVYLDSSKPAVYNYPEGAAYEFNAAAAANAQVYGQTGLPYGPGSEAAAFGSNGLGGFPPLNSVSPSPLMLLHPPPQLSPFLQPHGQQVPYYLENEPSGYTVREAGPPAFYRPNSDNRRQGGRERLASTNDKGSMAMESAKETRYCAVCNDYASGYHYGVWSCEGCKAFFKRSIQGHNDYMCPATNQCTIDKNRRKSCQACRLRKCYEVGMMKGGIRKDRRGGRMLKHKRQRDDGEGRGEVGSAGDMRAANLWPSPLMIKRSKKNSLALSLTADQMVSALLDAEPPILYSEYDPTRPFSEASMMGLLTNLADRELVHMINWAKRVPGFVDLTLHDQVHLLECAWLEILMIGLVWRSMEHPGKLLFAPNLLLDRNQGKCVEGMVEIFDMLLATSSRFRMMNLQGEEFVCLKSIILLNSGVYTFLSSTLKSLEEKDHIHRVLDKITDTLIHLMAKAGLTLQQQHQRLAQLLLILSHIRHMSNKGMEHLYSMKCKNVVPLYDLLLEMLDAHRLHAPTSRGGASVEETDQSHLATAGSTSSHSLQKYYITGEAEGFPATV
Protocol: as §1, §2

melting point | ERβ Binding (Potency Binding (ERβ)) [1] | ERβ Transactivation (Potency Transactivation (ERβ)) [2] | β/α ratio Transactivation [2] | Binding ERβ [1] | Binding ERα [3] | Compound
233 to 235 °C | – | – | – | – | – | Oc1ccc2c(c1)CCc1c-2cc2ccc(O)cc2c1C1CCCC1 [Compound 16, 3,9-dihydroxy-7-cyclopentyl-5,6-dihydro-benz[a]anthracene]
– | ++ (between 2-10%) | + (between 0.1-4%) | ++ (between 10-30) | – | – | COc1ccc2c(c1)Cc1c-2nc2ccc(OC)cc2c1Br [Compound 2b, 10-bromo-2,8-dimethoxy-11H-indeno[1,2-b]quinoline]
265 °C | ++ (between 2-10%) | + (between 0.1-4%) | ++ (between 10-30) | – | – | Cc1c2c(cc3ccc(O)cc13)-c1ccc(O)cc1C2 [Compound 67d, 2,8-dihydroxy-10-methyl-11H-benzo[b]fluorene]
– | – | – | – | ++++ (>8%) | ++++ (>8%) | Oc1ccc2c(c1)CCc1c-2nc2ccc(O)cc2c1Cl [Compound 10, 7-chloro-3,9-dihydroxy-5,6-dihydro-benz[c]acridine]
– | +++ (>10%) | ++ (between 4-10%) | ++ (between 10-30) | – | – | Oc1ccc2c(c1)Cc1c-2cc2ccc(O)cc2c1C(F)(F)F [Compound 67e, 2,8-dihydroxy-10-trifluoromethyl-11H-benzo[b]fluorene]
– | ++ (between 2-10%) | ++ (between 4-10%) | + (between 3.5-10) | – | – | COc1ccc2c(c1)Cc1c-2nc2ccc(OC)cc2c1Cl [Compound 2a, 10-chloro-2,8-dimethoxy-11H-indeno[1,2-b]quinoline]
– | – | – | – | – | +++ (between 3.5-8%) | 10-chloro-1,1-dimethyl-2,8-dihydroxy-11H-indeno[1,2-b]quinoline [Compound 7d]
– | – | + (between 0.1-4%) | ++ (between 10-30) | – | – | CCCC(=O)Oc1ccc2c(c1)Cc1c-2nc2ccc(OC(=O)CCC)cc2c1Br [Compound 2d, Dibutyryl Ester of 10-bromo-2,8-dihydroxy-11H-indeno[1,2-b]quinoline]
– | – | – | – | ++ (between 1.5-3.5%) | + (between 0.1-1.5%) | Cc1c(O)ccc2c1Cc1c-2nc2ccc(O)cc2c1Cl [Compound 7c, 10-chloro-1-methyl-2,8-dihydroxy-11H-indeno[1,2-b]quinoline]
– | – | – | – | ++ (between 1.5-3.5%) | − (<0.3%) | Oc1ccc2c(c1)Cc1c-2nc2ccc(O)cc2c1Br [Compound 7b, 10-bromo-2,8-dihydroxy-11H-indeno[1,2-b]quinoline]
– | ++ (between 2-10%) | + (between 0.1-4%) | − (<3.5) | – | – | Oc1ccc2c(c1)Cc1cc3ccc(O)cc3cc1-2 [Compound 25, 2,7-dihydroxy-11H-benzo[b]fluorene]
– | ++ (between 2-10%) | − (<0.1%) | – | – | – | Oc1ccc2c(c1)Cc1c-2nc2ccc(O)cc2c1-c1ccccc1 [Compound 5, 10-phenyl-2,8-dihydroxy-11H-indeno[1,2-b]quinoline]
250 to 251 °C | – | – | – | – | – | CCc1c2c(c(Cl)c3ccc(O)cc13)-c1ccc(O)cc1C2 [Compound 40, 2,8-dihydroxy-5-chloro-10-ethyl-11H-benzo[b]fluorene]
223 to 224 °C | – | – | – | – | – | CCCc1c2c(c(Cl)c3ccc(O)cc13)-c1ccc(O)cc1C2 [Compound 22, 2,8-dihydroxy-5-chloro-10-propyl-11H-benzo[b]fluorene]
– | +++ (>10%) | +++ (>10%) | +++ (>30) | – | – | Oc1ccc2c(c1)Cc1c-2cc2ccc(O)cc2c1Br [Compound 67b, 2,8-dihydroxy-10-bromo-11H-benzo[b]fluorene]
– | ++ (between 2-10%) | + (between 0.1-4%) | + (between 3.5-10) | – | – | Oc1ccc2c(c1)Cc1cc3cc(O)ccc3cc1-2 [Compound 69, 2,8-dihydroxy-11H-benzo[b]fluorene]
272 °C | – | – | – | – | – | Oc1ccc(-c2c3c(cc4ccc(O)cc24)-c2ccc(O)cc2CC3)cc1 [Compound 16a, 3,9-dihydroxy-7-(4-hydroxyphenyl)-5,6-dihydro-benz[a]anthracene]
– | – | – | – | +++ (between 3.5-8%) | − (<0.3%) | Oc1ccc2c(c1)Cc1c-2nc2ccc(O)cc2c1Cl [Compound 7a, 10-chloro-2,8-dihydroxy-11H-indenol[1,2-b]quinoline]
255 °C (dec.) | – | – | – | – | – | CCc1c2c(c(CC)c3ccc(O)cc13)-c1ccc(O)cc1C2 [Compound 47, 2,8-dihydroxy-5,10-diethyl-11H-benzo[b]fluorene]
– | – | – | – | ++ (between 1.5-3.5%) | ++ (between 1.5-3.5%) | Oc1ccc2nc3c(c(Cl)c2c1)-c1cccc(O)c1CC3 [Compound 8, 12-chloro-4,10-dihydroxy-5,6-dihydro-benz[a]acridine]
– | +++ (>10%) | +++ (>10%) | +++ (>30) | ++++ (>8%) | ++ (between 1.5-3.5%) | Oc1ccc2c(c1)Cc1cc3cc(O)ccc3c(Cl)c1-2 [Compound 60, 2,8-dihydroxy-5-chloro-11H-benzo[b]fluorene]
– | – | ++ (between 4-10%) | ++ (between 10-30) | – | – | CCCC(=O)Oc1ccc2c(c1)Cc1c-2nc2ccc(OC(=O)CCC)cc2c1Cl [Compound 2c, Dibutyryl Ester of 10-chloro-2,8-dihydroxy-1H-indeno[1,2-b]quinoline]
– | +++ (>10%) | +++ (>10%) | +++ (>30) | – | – | Oc1ccc2c(c1)Cc1c-2cc2ccc(O)cc2c1Cl [Compound 67a, 2,8-dihydroxy-10-chloro-11H-benzo[b]fluorene]
215 to 220 °C | – | – | – | – | – | CC1c2cc(O)ccc2-c2c1cc1cc(O)ccc1c2Cl (stereo not drawn) [Compound 54, 2,8-dihydroxy-5-chloro-11-methyl-11H-benzo[b]fluorene]
211 to 212 °C | – | – | – | – | – | Oc1ccc2c(c1)Cc1c-2cc2ccc(O)cc2c1C=C(F)F [Compound 50, 2,8-dihydroxy-10-(2,2-difluoro-ethenyl)-11H-benzo[b]fluorene]
– | +++ (>10%) | +++ (>10%) | +++ (>30) | – | – | Oc1ccc2c(c1)Cc1c-2cc2ccc(O)cc2c1I [Compound 67c, 2,8-dihydroxy-10-iodo-11H-benzo[b]fluorene]
250 °C | – | – | – | – | – | CCCc1c2c(c(CCC)c3ccc(O)cc13)-c1ccc(O)cc1C2 [Compound 57, 2,8-dihydroxy-5,10-dipropyl-11H-benzo[b]fluorene]

Compound | melting point | ERβ Binding (Potency Binding (ERβ)) [1] | ERβ Transactivation (Potency Transactivation (ERβ)) [2] | β/α ratio Transactivation [2] | Binding ERβ [1] | Binding ERα [3]
CC(C)(C)C(=O)Oc1ccc2c(c1)Cc1c-2cc2ccc(OC(=O)C(C)(C)C)cc2c1Cl [Compound 68a, di-pivaloyl Ester of 2,8-dihydroxy-10-chloro-11H-benzo[b]fluorene] | – | – | ++ (between 4-10%) | +++ (>30) | – | –
